Assay results reported in patent publication US10195189B2, “2-phenethenyltetrahydro isoquinolines useful as anti-HIV compounds” (priority 2014, dated 2019).
Read-outs that look alike come from different tables or passages of the source.

Tests used:
[1] = test system: HIV-1 NL4-3 viral clone expressing Renilla luciferase; assay: microbe, parasite or virus in culture; assay type: cell-based
Procedure, shortened: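 MT-2 cells (2×10^4/well) were infected at MOI 0.027 with Renilla-luciferase HIV-1 NL4-3 alongside 3-fold compound dilutions for 96 h. Spread was read by EnduRen luminescence and supernatant infectivity on TZM-bl (48 h, MUG fluorescence). Mock-infected cytotoxicity used AlamarBlue. % inhibition versus solvent was fitted by 4-parameter logistic (0–100% constrained) for EC50/CC50.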

MT-2 cells = assay: Cytotoxicity assay (AlamarBlue) in mock infected MT-2 cells; assay type: cell-based, human
Method: (§1) The present assay was used to screen candidate antiviral compounds by quantification of virus spread and production over several rounds of infection in vitro. MT-2, a HIV-1 permissive human T-cell line, was seeded in microtiter plates and was simultaneously treated with serially diluted compound and inoculated with a HIV-1 NL4-3 viral clone engineered to express Renilla luciferase in place of Net Following treatment, the culture was incubated for 96 hours. After the incubation, media was collected and used to estimate relative infectivity on the indicator cell line, TZM-bl. Additionally, viral spread was quantified by measuring luciferase activity via a commercially available luciferase substrate. In parallel, MT-2 cells were seeded and inoculated with mock virus in the presence of serially diluted compound. Compound toxicity was quantified 96 hours after treatment with AlamarBlue.
(§2) MT-2 (NIH Aids reagent program 237) cells were grown and maintained in an incubator at 37° C. with 5% CO2 using a basal medium of RPMI-1640 supplemented with 10% FBS. Cells were seeded in 100 μl at 2×10^4 cells/well in white walled 96-well microtiter plates. Candidate compounds were 3-fold serially diluted in the appropriate solvent. Solvent without compound was used as a no drug reference. Cells were inoculated at a multiplicity of 0.027 with an HIV-1 NL4-3 virus stock engineered to express Renilla luciferase in place of Net Diluted virus stock was first added to serially diluted compound. Compound and virus were delivered to cells in an equal volume (100 μl) and treated cultures were returned to the incubator for 96 hours. In parallel, plates for cytotoxicity estimates were prepared in the same way except cells were plated in clear walled 96-well microtiter plates and were mock infected.
(§3) At 96 hours post treatment, 20 μl AlamarBlue proliferation reagent was added to 200 μl treated and mock infected cultures and incubated for 3 hours at 37° C. with 5% CO2 then read at 545, 590 nm on fluorescence plate reader (Biotek).
(§4) For all assays, data was imported into Accelrys Assay Explorer 3.3. In Assay Explorer, % inhibition (antiviral or cytotoxicity) was calculated using the solvent control as a reference by the following equation: 1−(SignalCompound/SignalReference). The % Inhibition and compound concentration data was fitted using the following 4-parameter logistic model (Assay Explorer model 42):
(§5) [formula] where X is compound concentration, Y is % inhibition, D is the maximum % Inhibition (constrained to 100%), C is IC50 value or inflection point, B is the hill slope, and A is the minimum % inhibition (constrained to 0%). The IC50 value is reported as the EC50 or CC50 depending on the assay endpoint. EC50 represents the effective concentration at which virus replication is inhibited by 50 percent. CC50 represents the concentration that results in the death of 50 percent of the host cells. The selectivity or therapeutic index (SI or TI), is the ratio of CC50 over EC50 and represents the relative effectiveness in inhibiting viral replication compared to inducing cell death.

[2] = as above; assay type: cell-based, human; details: human
Method: as §1, §2, §3, §4, §5

[3] = Human immunodeficiency virus 1, NL43, MT2, 96 h
[4] = mock infected MT-2 cells, 96 hours, AlamarBlue, read-out: CC50

SMILES | EC50 [1, 3] [µM] | CC50 (MT-2 cells; human, 96 h) [µM] | further results
COc1cc(C(C)(C)C)c(/C=C/C2NCCc3cc(OCc4ccccc4)c(OC)cc32)cc1OCc1ccccc1 (stereo not shown) [AS, 6-Benzyloxy-1-[(E)-2-(5-benzyloxy-2-tert-butyl-4-methoxy-phenyl)vinyl]-7-methoxy-1,2,3,4-tetrahydroisoquinoline] | 4.22 |  | CC50 (MT-2 cells; [4]): 5.36 µM
COc1cc2c(cc1OCc1ccccc1)CCNC2/C=C/c1ccc2cn[nH]c2c1 (stereo not shown) [BT, 6-Benzyloxy-1-[(E)-2-(1H-indazol-6-yl)vinyl]-7-methoxy-1,2,3,4-tetrahydroisoquinoline] |  |  | EC50 ([1]; MT-2 cells infected with HIV-1 NL4-3, 96 hours, read-out: EC50): 0.613 µM; CC50 (MT-2 cells): 7.98 µM
COc1ncc(/C=C/C2NCCc3cc(OCc4ccccc4)c(OC)cc32)cn1 (stereo not shown) [DD, (E)-(benzyloxy)-7-methoxy-1-(2-(2-methoxypyrimidin-5-yl)vinyl)-1,2,3,4-tetrahydroisoquinoline] | 11.1 | 100 | 
CCOCc1cc(/C=C/C2NCCc3cc(OCc4ccccc4)c(OC)cc32)ccc1OC (stereo not shown) [EP, (E)-6-(benzyloxy)-1-(3-(ethoxymethyl)-4-methoxystyryl)-7-methoxy-1,2,3,4-tetrahydroisoquinoline] | 0.846 |  | CC50 at 96 h [2]: 4 µM
COc1cc(C)c(/C=C/C2c3cc(OC)c(OCc4ccccc4)cc3CCN2C(=O)c2cccc(N)n2)cc1OCc1ccccc1 (stereo not shown) [Example F, (6-Amino-2-pyridyl)-[6-benzyloxy-1-[(E)-2-(5-benzyloxy-4-methoxy-2-methyl-phenyl)vinyl]-7-methoxy-3,4-dihydro-1H-isoquinolin-2-yl]methanone] | 5.05 | 100 | 
COc1cc(C)c(/C=C/C2c3cc(OC)c(OCc4ccccc4)cc3CCN2C(=O)c2cnccn2)cc1OCc1ccccc1 (stereo not shown) [Example H, [6-Benzyloxy-1-[(E)-2-(5-benzyloxy-4-methoxy-2-methyl-phenyl)vinyl]-7-methoxy-3,4-dihydro-1H-isoquinolin-2-yl]-pyrazin-2-yl-methanone] | 4.48 | 100 | 
COC(=O)N1CCc2cc(OCc3ccccc3)c(OC)cc2C1/C=C/c1cc(OC)c(OC)cc1C (stereo not shown) [Example I, Methyl 6-benzyloxy-1-[(E)-2-(4,5-dimethoxy-2-methyl-phenyl)vinyl]-7-methoxy-3,4-dihydro-1H-isoquinoline-2-carboxylate] | 4.48 | 100 | 
COc1cc(C)c(/C=C/C2c3cc(OC)c(OCc4ccccc4)cc3CCN2C(=O)c2cccnc2N)cc1OCc1ccccc1 (stereo not shown) [Example K, (2-Amino-3-pyridyl)-[6-benzyloxy-1-[(E)-2-(5-benzyloxy-4-methoxy-2-methyl-phenyl)vinyl]-7-methoxy-3,4-dihydro-1H-isoquinoline-2-yl]methanone] | 2.88 | 100 | 
COc1cc(C)c(/C=C/C2c3cc(OC)c(OCc4ccccc4)cc3CCN2C(=O)c2ccccn2)cc1OCc1ccccc1 (stereo not shown) [Example M, [6-benzyloxy-1-[(E)-2-(5-benzyloxy-4-methoxy-2-methyl-phenyl)vinyl]-7-methoxy-3,4-dihydro-1H-isoquinolin-2-yl]-(2-pyridyl)methanone] | 2.09 | 100 | 
COc1cc(C)c(/C=C/C2c3cc(OC)c(OCc4ccccc4)cc3CCN2C(=O)c2ccnc(N)c2)cc1OCc1ccccc1 (stereo not shown) [Example N, (2-amino-4-pyridyl)-[6-benzyloxy-1-[(E)-2-(5-benzyloxy-4-methoxy-2-methyl-phenyl)vinyl]-7-methoxy-3,4-dihydro-1H-isoquinolin-2-yl]methanone] | 2.03 | 100 | 
COc1cc(C)c(/C=C/C2c3cc(OC)c(OCc4ccccc4)cc3CCN2C(=O)c2ccc(N)nc2)cc1OCc1ccccc1 (stereo not shown) [Example P, (6-amino-3-pyridyl)-[6-benzyloxy-1-[(E)-2-(5-benzyloxy-4-methoxy-2-methyl-phenyl)vinyl]-7-methoxy-3,4-dihydro-1H-isoquinolin-2-yl]methanone] | 1.69 | 100 | 
COc1cc(C)c(/C=C/C2c3cc(OC)c(OCc4ccccc4)cc3CCN2C(N)=O)cc1OCc1ccccc1 (stereo not shown) [Example R, 6-benzyloxy-1-[(E)-2-(5-benzyloxy-4-methoxy-2-methyl-phenyl)vinyl]-7-methoxy-3,4-dihydro-1H-isoquinoline-2-carboxamide] | 1.18 |  | CC50 (MT-2 cells; [4]): 39.3 µM
COc1cc(C)c(/C=C/C2c3cc(OC)c(OCc4ccccc4)cc3CCN2C(=O)c2cccnc2)cc1OCc1ccccc1 (stereo not shown) [Example T, [6-benzyloxy-1-[(E)-2-(5-benzyloxy-4-methoxy-2-methyl-phenyl)vinyl]-7-methoxy-3,4-dihydro-1H-isoquinolin-2-yl]-(3-pyridyl)methanone] | 0.93 | 100 | 
COc1ccc(/C=C/C2NCCc3cc(OCc4ccccc4)c(OC)cc32)c(C(F)(F)F)c1 (stereo not shown) [Example Z, 6-benzyloxy-7-methoxy-1-[(E)-2-[4-methoxy-2-(trifluoromethyl)phenyl]vinyl]-1,2,3,4-tetrahydroisoquinoline] | 0.35 |  | CC50 (MT-2 cells; [4]): 100 µM
